From patent US8148391B2 (Cephalon, Inc., priority 2006, dated 2012)
Where two headings read alike, the source gives them in different places.

Tests used:
[1] = molecular target: T1, c-Met (cytoplasmic domain) (Homo sapiens, UniProt P08581); assay: c-Met Kinase Assay (same methods as for ALK, with modifications); format: biochemical
T1 construct: 10 ng/mL c-Met (cytoplasmic domain, Invitrogen Corporation #PV3143); purchased Invitrogen Corporation PV3143
How it was run: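 Wells were coated with 10 μg/mL phospholipase C-γ substrate in TBS, and reactions were started with 10 ng/mL c-Met cytoplasmic domain and run at 37° C for 15 minutes. Phosphorylated product was detected with Eu-N1-labeled PT66 antibody. IC50 values came from sigmoidal variable-slope fits of percent inhibition versus log compound concentration.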

[2] = molecular target: T2, baculovirus-expressed ALK (Homo sapiens, UniProt Q9UM73); assay: ALK Kinase Assay (ELISA-type, time-resolved fluorescence); format: biochemical
T2 construct: host or cells: baculovirus expression system
T2 sequence (Q9UM73 19-1620): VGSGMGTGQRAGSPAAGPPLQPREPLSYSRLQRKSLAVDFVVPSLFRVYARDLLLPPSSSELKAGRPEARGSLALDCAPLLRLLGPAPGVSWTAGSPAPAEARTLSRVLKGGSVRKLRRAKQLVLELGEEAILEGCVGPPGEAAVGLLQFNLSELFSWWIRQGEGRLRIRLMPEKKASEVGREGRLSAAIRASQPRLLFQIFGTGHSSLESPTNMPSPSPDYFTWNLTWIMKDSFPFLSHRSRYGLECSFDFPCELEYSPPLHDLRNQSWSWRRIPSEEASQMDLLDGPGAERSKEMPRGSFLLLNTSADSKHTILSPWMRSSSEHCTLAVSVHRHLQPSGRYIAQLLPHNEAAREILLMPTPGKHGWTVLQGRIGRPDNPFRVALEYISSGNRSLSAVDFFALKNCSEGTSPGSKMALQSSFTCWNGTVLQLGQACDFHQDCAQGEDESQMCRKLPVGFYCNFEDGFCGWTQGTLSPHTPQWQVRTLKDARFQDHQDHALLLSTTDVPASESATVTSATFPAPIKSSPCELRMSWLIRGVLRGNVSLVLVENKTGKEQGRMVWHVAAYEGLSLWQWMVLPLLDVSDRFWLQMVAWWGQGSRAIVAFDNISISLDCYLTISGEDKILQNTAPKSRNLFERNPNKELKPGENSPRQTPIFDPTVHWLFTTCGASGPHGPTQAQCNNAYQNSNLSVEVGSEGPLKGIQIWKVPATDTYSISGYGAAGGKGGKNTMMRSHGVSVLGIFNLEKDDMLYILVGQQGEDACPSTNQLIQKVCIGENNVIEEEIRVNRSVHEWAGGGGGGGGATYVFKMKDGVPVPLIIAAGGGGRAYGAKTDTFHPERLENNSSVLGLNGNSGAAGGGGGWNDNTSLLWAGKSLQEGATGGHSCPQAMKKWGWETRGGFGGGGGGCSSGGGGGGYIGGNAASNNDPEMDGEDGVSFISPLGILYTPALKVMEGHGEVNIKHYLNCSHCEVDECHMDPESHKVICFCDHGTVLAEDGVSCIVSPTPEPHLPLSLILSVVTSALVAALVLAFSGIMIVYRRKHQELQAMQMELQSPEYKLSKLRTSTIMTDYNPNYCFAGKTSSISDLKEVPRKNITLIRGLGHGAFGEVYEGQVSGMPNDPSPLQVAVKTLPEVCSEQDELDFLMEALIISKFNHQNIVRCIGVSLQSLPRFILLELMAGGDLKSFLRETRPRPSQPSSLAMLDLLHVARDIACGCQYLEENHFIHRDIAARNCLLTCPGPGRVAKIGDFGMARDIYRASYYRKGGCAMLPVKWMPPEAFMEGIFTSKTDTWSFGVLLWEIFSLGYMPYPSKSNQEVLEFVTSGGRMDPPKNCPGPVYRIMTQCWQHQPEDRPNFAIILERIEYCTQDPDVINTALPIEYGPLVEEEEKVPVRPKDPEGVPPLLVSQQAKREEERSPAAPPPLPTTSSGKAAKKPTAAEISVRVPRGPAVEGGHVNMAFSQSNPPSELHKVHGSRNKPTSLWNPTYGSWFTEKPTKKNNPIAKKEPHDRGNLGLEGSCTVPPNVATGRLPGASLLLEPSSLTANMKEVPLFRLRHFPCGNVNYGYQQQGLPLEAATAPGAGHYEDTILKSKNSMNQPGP
How it was run: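 Substrate coating: phospholipase C-γ, 10 μg/mL in TBS. Kinase step: 30 ng/ml ALK, 15 min, 37° C. Detection and analysis: Eu-N1 PT66 antibody, with IC50 fitted as a sigmoidal variable-slope dose-response curve.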

[3] = 1 μM ATP (Km level), 10 ng/mL c-Met, read-out: cMet Activity (c-Met kinase inhibition, IC50 class)
[4] = 1 μM ATP (Km level), 30 ng/ml ALK, 37° C., 15 minutes, read-out: ALK Activity (ALK kinase inhibition, IC50 class)
[5] = c-Met kinase inhibition, 1 μM ATP, read-out: cMet Activity
[6] = ALK kinase inhibition, 1 μM ATP, read-out: ALK Activity
[7] = 1 μM ATP (Km level), read-out: cMet Activity (c-Met Kinase Inhibition, IC50)
[8] = 1 μM ATP (Km level), read-out: ALK Activity (ALK Kinase Inhibition, IC50)

T1 sequence (P08581 956-1390 limits assumed): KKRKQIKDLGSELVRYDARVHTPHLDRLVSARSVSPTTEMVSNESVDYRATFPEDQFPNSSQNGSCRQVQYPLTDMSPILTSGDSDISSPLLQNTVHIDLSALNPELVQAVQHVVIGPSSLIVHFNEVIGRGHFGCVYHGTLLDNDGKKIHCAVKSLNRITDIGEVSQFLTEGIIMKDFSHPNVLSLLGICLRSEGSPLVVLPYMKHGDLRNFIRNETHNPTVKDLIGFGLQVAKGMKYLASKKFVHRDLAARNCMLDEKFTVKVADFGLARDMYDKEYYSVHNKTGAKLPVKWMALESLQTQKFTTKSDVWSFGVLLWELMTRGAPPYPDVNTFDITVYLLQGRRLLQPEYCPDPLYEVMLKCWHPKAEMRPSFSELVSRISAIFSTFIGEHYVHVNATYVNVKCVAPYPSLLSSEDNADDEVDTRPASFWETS

Row | IC50 [1, 5] [µM] | IC50 [2, 6] [µM] | further results | Compound
1 | – | – | IC50 [1, 3]: 1 to 10 µM; IC50 [2, 4]: < 0.1 µM | CNC(=O)CN1CCc2ccc(Nc3ncc(Cl)c(Nc4ccc(N5CCOCC5)cc4OC)n3)cc2CC1 [Example 1127, 2-{7-[5-Chloro-4-(2-methoxy-4-morpholin-4-yl-phenylamino)-pyrimidin-2-ylamino]-1,2,4,5-tetrahydro-benzo[d]azepin-3-yl}-N-methyl-acetamide]
2 | < 0.1 | 0.1 to 1 | – | CCN1C(=O)CN(C(C)=O)Cc2ccc(Nc3ncc(Cl)c(Nc4c(Cl)cccc4C(=O)NC)n3)cc21 [Example 1854, 2-[2-(4-Acetyl-1-ethyl-2-oxo-2,3,4,5-tetrahydro-1H-benzo[e][1,4]diazepin-8-ylamino)-5-chloro-pyrimidin-4-ylamino]-3-chloro-N-methyl-benzamide]
3 | 0.1 to 1 | < 0.1 | – | COCCN1CCCC(C)(C)c2ccc(Nc3ncc(Cl)c(N[C@H]4[C@@H](C(N)=O)[C@@H]5C=C[C@H]4C5)n3)cc21 [Example 1600, (1S,2S,3R,4R)-3-{5-Chloro-2-[1-(2-methoxy-ethyl)-5,5-dimethyl-2,3,4,5-tetrahydro-1H-benzo[b]azepin-8-ylamino]-pyrimidin-4-ylamino}-bicyclo[2.2.1]hept-5-ene-2-carboxylic acid amide]
4 | – | – | IC50 [1, 7]: > 10 µM; IC50 [2, 8]: < 0.1 µM | COCCN(C)C1CCc2ccc(Nc3ncc(Cl)c(N[C@H]4[C@@H](C(N)=O)[C@@H]5C=C[C@H]4C5)n3)c(OC)c2CC1 (single isomer, unassigned) [Example 700]
5 | – | – | IC50 [1, 7]: > 10 µM; IC50 [2, 8]: < 0.1 µM | COc1cc2c(cc1Nc1ncc(Cl)c(Nc3ccc(N4CCOCC4)c(C)c3)n1)CCN(CC(=O)N(C)C)CC2 [Example 796, 2-{7-[5-Chloro-4-(3-methyl-4-morpholin-4-yl-phenylamino)-pyrimidin-2-ylamino]-8-methoxy-1,2,4,5-tetrahydro-benzo[d]azepin-3-yl}-N,N-dimethyl-acetamide]
6 | 0.1 to 1 | 1 to 10 | – | CNC(=O)c1cccc(Cl)c1Nc1nc(Nc2ccc3c(c2)-n2ccnc2CCC3)ncc1Cl [Example 1839, 2-[5-Chloro-2-(5,6-dihydro-4H-3,10b-diaza-benzo[e]azulen-9-ylamino)-pyrimidin-4-ylamino]-3-chloro-N-methyl-benzamide]
7 | – | – | IC50 [1, 3]: > 10 µM; IC50 [2, 4]: < 0.1 µM | CCCCNC(=O)c1ccccc1Nc1nc(Nc2cc3c(cc2OC)CCN(CCOC)CC3)ncc1Cl [Example 1031, N-Butyl-2-{5-chloro-2-[8-methoxy-3-(2-methoxy-ethyl)-2,3,4,5-tetrahydro-1H-benzo[d]azepin-7-ylamino]-pyrimidin-4-ylamino}-benzamide]
8 | < 0.1 | 0.1 to 1 | – | C#CCNC(=O)c1cc(F)cc(F)c1Nc1nc(Nc2ccc3c(c2)CCN(CCOC)CC3)ncc1Cl [Example 1728, 2-{5-Chloro-2-[3-(2-methoxy-ethyl)-2,3,4,5-tetrahydro-1H-benzo[d]azepin-7-ylamino]-pyrimidin-4-ylamino}-3,5-difluoro-N-prop-2-ynyl-benzamide]
9 | 1 to 10 | 1 to 10 | – | 8-[5-Chloro-4-(2-pyrazol-1-yl-phenylamino)-pyrimidin-2-ylamino]-3-methyl-1,3,4,5-tetrahydro-benzo[d]azepin-2-one [Example 1819]
10 | > 10 | > 10 | – | CN1CCc2ccc(Nc3ncc(Cl)c(Nc4ccccc4-c4cc[nH]n4)n3)cc2CC1=O [Example 1825, 8-{5-Chloro-4-[2-(1H-pyrazol-3-yl)-phenylamino]-pyrimidin-2-ylamino}-3-methyl-1,3,4,5-tetrahydro-benzo[d]azepin-2-one]
11 | – | – | IC50 [1, 3]: 1 to 10 µM; IC50 [2, 4]: < 0.1 µM | COCCN1CCc2ccc(Nc3ncc(Cl)c(Nc4ccccc4C(=O)NCC4CC4)n3)cc2CC1 [Example 1421, 2-{5-Chloro-2-[3-(2-methoxy-ethyl)-2,3,4,5-tetrahydro-1H-benzo[d]azepin-7-ylamino]-pyrimidin-4-ylamino}-N-cyclopropylmethyl-benzamide]
